Test results from paper PMC4277420, “Assessment of [^125I]WYE-230949 as a Novel Histamine H3 Receptor Radiopharmaceutical” (PLoS ONE, 2014).

Target: T1, histamine H3 receptor (Rattus norvegicus, UniProt Q9QYN8)
T1 construct: Sections (20 µm) cut from a frozen rat brain were pre-incubated in Tris-HCl buffer; from tissue
Assay: In vitro autoradiography on rat brain sections
Assay type: binding
Settings: 5 nM radioligand, non-specific with 5 µM iodophenpropit
Protocol: Sections (20 µm) cut from a frozen rat brain were pre-incubated in Tris-HCl buffer (50 mM, pH 7.4; EDTA 5 mM) for 15 min then incubated in 5 nM [^125I]WYE-230949 for 90 min at room temperature. Non-specific binding was defined in adjacent sections in the presence of 5 µM iodophenpropit dihydrobromide. Sections were washed (2×30 min in Tris buffer) and briefly (15 s) rinsed in distilled water before drying and apposition to Kodak Biomax for 24 h. These autoradiograms were generated only for visual comparison with those obtained ex vivo.

T1 sequence (Q9QYN8 whole entry): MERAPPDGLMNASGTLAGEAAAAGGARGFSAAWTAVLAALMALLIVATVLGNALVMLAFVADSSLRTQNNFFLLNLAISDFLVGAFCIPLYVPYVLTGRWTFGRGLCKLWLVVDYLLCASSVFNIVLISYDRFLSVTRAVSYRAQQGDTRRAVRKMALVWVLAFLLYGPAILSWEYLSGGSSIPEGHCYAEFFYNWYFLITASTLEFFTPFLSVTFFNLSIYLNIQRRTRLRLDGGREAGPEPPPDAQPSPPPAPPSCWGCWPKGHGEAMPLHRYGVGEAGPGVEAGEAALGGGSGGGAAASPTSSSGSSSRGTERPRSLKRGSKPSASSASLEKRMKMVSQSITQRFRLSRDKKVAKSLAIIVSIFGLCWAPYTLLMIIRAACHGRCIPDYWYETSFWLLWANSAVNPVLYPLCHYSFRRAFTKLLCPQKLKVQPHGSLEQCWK

In the case of `O=C(c1ccc(Cn2cnc3cccc([125I])c32)cc1)N1CC[C@H](N2CCCC2)C1` [[^125I]WYE-230949], the “regional distribution of binding in rat brain” value is reported as “corresponded with known histamine H3 receptor distribution”.
